Source: patent US20170334899A1, “AMINO-SUBSTITUTED ISOTHIAZOLES” (Bayer Pharma Aktiengesellschaft, priority 2014, published 2017)

Assays:
Type in all cases: cell-based
HeLa-MaTu-ADR = test: Proliferation assay (crystal violet), HeLa-MaTu-ADR; settings: 96 h; HeLa-MaTu-ADR cells; 4 days incubation; crystal violet staining; read-out: IC50 inhibition of proliferation, HeLa-MaTu-ADR
Description: (§1) Cultivated tumor cells (cells were ordered from ATCC, except HeLa-MaTu and HeLa-MaTu-ADR, which were ordered from EPO-GmbH, Berlin) were plated at a density of 1000 to 5000 cells/well, depending on the growth rate of the respective cell line, in a 96-well multititer plate in 200 μL of their respective growth medium supplemented 10% fetal calf serum. After 24 hours, the cells of one plate (zero-point plate) were stained with crystal violet (see below), while the medium of the other plates was replaced by fresh culture medium (200 μl), to which the test substances were added in various concentrations (0 μM, as well as in the range of 0.001-10 μM; the final concentration of the solvent dimethyl sulfoxide was 0.5%). The cells were incubated for 4 days in the presence of test substances. Cell proliferation was determined by staining the cells with crystal violet: the cells were fixed by adding 20 μl/measuring point of an 11% glutaric aldehyde solution for 15 minutes at room temperature. After three washing cycles of the fixed cells with water, the plates were dried at room temperature. The cells were stained by adding 100 μl/measuring point of a 0.1% crystal violet solution (pH 3.0). After three washing cycles of the stained cells with water, the plates were dried at room temperature. The dye was dissolved by adding 100 μl/measuring point of a 10% acetic acid solution. Absorbtion was determined by photometry at a wavelength of 595 nm. The change of cell number, in percent, was calculated by normalization of the measured values to the aborbtion values of the zero-point plate (=0%) and the absorbtion of the untreated (0 μm) cells (=100%). The IC50 values were determined by means of a 4 parameter fit.

Caco-2 = test: Proliferation assay (crystal violet), Caco-2; settings: Homo sapiens, 96 h; Caco-2 cells; 4 days incubation; crystal violet staining; read-out: IC50 inhibition of proliferation, Caco2
Description: as §1

DU145 = test: Proliferation assay (crystal violet), DU145; settings: Homo sapiens, DU-145, 96 h; DU145 cells; 4 days incubation; crystal violet staining; read-out: IC50 inhibition of proliferation, DU145
Description: as §1

B16F10 = test: Proliferation assay (crystal violet), B16F10; settings: Mus musculus, B16-F10, 96 h; B16F10 cells; 4 days incubation; crystal violet staining; read-out: IC50 inhibition of proliferation, B16F10
Description: as §1

NCI-H460 = test: Proliferation assay (crystal violet), NCI-H460; settings: Homo sapiens, 96 h; NCI-H460 cells; 4 days incubation; crystal violet staining; read-out: IC50 inhibition of proliferation, NCI-H460
Description: as §1

Row | IC50 (HeLa-MaTu-ADR) | IC50 (Caco-2) | IC50 (DU145) | IC50 (B16F10) | IC50 (NCI-H460) | SMILES
1 | 290 nM | 240 nM | 720 nM | 290 nM | 150 nM | Cc1nsc(Nc2cncc(C(F)(F)F)n2)c1C(=O)Nc1ccc(OC2CCN(CC(F)(F)F)CC2)nc1 [Example 16, 3-Methyl-N-(6-{[1-(2,2,2-trifluoroethyl)piperidin-4-yl]oxy}pyridin-3-yl)-5-{[6-(trifluoromethyl)pyrazin-2-yl]amino}-1,2-thiazole-4-carboxamide]
2 | 380 nM | 270 nM | 910 nM | 550 nM | 640 nM | Cc1nsc(Nc2cnc3ccccc3n2)c1C(=O)Nc1ccc(OC2CCN(C(=O)OC(C)(C)C)CC2)nc1 [Example 18, tert-Butyl 4-{[5-({[3-methyl-5-(quinoxalin-2-ylamino)-1,2-thiazol-4-yl]carbonyl}-amino)pyridin-2-yl]oxy}piperidine-1-carboxylate]
